Measurements from ChEMBL document CHEMBL5291721, “A preclinical secondary pharmacology resource illuminates target-adverse drug reaction associations of marketed drugs” (Nat Commun, 2023).

Key:
[1] = biological target: Beta-1 adrenergic receptor (Homo sapiens, UniProt P08588); assay type: functional
D(1A) dopamine receptor = D(1A) dopamine receptor (Homo sapiens, UniProt P21728); assay type: functional, cell-based
[2] = biological target: T1, Gamma-aminobutyric acid receptor subunit alpha-1 (Rattus norvegicus, UniProt P62813)
T1 sequence (P62813 whole entry): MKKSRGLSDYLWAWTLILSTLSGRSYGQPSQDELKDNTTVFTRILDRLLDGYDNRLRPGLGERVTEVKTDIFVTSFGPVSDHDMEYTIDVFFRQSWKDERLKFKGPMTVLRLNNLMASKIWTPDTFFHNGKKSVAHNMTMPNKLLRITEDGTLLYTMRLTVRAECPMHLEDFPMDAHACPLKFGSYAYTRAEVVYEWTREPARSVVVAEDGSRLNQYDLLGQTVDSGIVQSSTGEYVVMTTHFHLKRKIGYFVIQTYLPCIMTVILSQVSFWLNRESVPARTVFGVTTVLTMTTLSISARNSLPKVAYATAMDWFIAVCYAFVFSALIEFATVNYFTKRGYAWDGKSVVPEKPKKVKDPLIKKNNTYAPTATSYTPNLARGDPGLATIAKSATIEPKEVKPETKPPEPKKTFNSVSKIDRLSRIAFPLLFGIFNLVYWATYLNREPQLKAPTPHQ

[3] = biological target: T1, Gamma-aminobutyric acid receptor subunit alpha-1; assay type: functional
[4] = biological target: Kappa-type opioid receptor (Homo sapiens, UniProt P41145)
Sequence of Kappa-type opioid receptor (P41145 whole entry): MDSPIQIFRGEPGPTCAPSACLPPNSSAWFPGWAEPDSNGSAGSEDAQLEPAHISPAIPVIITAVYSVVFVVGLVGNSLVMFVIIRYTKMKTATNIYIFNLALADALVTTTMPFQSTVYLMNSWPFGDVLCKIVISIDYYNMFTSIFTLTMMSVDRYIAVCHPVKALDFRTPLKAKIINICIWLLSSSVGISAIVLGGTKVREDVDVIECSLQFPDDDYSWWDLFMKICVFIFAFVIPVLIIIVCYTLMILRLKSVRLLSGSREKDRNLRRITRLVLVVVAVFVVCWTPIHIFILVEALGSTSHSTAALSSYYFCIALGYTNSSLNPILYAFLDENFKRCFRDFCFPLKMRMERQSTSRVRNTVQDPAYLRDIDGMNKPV

Mu-type opioid receptor = Mu-type opioid receptor (Homo sapiens, UniProt P35372)
Sequence of Mu-type opioid receptor (P35372 whole entry): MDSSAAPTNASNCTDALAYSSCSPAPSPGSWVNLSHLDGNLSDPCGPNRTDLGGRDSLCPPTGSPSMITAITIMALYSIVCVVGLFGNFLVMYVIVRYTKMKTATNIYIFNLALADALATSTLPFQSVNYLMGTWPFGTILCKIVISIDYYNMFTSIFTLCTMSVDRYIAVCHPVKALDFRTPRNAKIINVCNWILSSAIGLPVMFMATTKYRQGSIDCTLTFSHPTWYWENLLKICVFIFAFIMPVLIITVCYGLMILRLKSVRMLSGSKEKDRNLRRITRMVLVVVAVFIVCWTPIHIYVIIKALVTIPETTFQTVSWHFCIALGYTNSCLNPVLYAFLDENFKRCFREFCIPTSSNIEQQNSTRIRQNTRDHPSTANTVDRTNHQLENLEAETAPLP

[5] = biological target: T2, Alpha-2B adrenergic receptor (Homo sapiens, UniProt P18089)
T2 sequence (P18089 whole entry): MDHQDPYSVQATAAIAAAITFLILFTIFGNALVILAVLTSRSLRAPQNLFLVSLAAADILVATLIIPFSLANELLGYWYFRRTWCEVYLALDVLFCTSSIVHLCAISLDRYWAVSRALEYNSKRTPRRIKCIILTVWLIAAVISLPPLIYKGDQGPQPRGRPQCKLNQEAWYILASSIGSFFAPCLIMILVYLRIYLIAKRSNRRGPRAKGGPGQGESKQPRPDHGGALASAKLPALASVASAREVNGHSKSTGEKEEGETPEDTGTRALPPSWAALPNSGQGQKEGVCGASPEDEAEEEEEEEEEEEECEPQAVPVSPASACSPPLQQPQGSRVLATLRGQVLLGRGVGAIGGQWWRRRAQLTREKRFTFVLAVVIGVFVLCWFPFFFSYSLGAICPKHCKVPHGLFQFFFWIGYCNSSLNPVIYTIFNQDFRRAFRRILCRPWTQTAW

Estrogen receptor = biological target: T3, Estrogen receptor (Homo sapiens, UniProt P03372)
T3 sequence (P03372 whole entry): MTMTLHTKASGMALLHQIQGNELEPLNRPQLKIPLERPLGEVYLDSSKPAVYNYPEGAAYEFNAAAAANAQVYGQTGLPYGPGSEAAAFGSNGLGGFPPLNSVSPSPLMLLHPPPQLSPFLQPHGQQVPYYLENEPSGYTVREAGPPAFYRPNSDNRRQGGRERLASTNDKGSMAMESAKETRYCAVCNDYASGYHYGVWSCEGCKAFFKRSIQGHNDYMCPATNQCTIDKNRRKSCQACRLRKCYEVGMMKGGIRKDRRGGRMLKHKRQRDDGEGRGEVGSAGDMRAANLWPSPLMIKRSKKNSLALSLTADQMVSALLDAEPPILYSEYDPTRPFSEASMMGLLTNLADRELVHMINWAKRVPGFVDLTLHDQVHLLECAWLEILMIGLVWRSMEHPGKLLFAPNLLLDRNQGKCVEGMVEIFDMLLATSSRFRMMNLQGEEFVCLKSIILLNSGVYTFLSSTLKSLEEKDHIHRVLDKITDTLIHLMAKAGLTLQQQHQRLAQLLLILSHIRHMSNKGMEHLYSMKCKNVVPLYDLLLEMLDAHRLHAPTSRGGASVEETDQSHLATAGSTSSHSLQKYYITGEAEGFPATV

[6] = biological target: 5-hydroxytryptamine receptor 2B (Homo sapiens, UniProt P41595); assay type: functional, cell-based
Sequence of 5-hydroxytryptamine receptor 2B (P41595 whole entry): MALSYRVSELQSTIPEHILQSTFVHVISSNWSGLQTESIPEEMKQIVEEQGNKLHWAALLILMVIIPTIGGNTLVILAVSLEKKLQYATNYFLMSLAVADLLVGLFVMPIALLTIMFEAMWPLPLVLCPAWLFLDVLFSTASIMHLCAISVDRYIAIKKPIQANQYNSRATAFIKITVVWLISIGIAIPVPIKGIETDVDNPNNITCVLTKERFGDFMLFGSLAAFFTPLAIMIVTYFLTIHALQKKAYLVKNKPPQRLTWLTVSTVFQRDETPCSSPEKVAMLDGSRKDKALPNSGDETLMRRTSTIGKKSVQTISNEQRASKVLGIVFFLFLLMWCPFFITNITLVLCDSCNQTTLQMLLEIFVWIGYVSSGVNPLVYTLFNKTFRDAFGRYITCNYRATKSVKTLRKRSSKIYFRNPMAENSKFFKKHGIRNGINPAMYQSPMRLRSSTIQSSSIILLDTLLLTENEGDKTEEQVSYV

Progesterone receptor = biological target: T4, Progesterone receptor (Homo sapiens, UniProt P06401)
T4 sequence (P06401 whole entry): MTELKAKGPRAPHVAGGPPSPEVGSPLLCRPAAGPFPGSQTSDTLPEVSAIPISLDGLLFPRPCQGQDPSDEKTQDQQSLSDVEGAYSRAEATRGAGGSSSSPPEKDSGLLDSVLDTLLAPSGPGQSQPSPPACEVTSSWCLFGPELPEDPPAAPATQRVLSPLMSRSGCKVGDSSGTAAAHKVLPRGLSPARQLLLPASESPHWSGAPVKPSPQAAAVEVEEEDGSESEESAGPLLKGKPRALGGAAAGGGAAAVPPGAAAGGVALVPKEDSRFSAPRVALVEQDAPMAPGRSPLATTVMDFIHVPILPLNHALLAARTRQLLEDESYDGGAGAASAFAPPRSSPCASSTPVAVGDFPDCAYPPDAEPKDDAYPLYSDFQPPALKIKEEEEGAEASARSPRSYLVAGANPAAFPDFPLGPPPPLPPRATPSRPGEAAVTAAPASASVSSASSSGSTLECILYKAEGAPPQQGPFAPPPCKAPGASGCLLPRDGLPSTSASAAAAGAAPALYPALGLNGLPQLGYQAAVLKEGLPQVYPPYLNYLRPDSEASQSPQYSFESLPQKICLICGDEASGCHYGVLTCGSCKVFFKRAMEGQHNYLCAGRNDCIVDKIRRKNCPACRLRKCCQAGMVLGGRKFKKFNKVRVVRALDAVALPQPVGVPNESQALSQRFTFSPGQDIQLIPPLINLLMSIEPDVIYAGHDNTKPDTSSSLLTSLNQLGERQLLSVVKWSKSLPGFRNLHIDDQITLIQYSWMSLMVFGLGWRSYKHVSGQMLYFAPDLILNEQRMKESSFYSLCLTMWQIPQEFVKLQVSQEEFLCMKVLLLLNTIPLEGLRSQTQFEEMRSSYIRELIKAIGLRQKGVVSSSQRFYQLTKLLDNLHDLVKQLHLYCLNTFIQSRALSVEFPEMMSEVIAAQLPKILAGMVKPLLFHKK

[7] = biological target: Sodium-dependent dopamine transporter (Homo sapiens, UniProt Q01959)
Sequence of Sodium-dependent dopamine transporter (Q01959 whole entry): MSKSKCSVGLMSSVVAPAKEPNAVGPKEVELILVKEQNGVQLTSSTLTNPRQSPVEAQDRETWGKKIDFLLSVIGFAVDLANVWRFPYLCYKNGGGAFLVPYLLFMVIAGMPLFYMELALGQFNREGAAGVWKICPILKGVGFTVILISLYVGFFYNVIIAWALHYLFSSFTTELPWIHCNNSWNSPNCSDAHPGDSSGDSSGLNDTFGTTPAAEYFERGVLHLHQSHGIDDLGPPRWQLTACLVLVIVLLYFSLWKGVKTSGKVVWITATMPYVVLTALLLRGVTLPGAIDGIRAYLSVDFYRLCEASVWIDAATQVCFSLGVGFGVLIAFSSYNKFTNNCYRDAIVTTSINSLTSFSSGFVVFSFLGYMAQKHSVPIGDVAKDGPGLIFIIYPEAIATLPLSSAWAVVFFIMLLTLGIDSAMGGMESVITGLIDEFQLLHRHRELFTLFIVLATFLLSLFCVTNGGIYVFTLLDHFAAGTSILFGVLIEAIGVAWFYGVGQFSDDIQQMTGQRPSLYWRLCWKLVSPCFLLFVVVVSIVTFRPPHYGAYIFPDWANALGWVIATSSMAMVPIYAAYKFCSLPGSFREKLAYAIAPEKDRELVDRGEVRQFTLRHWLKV
Note: assay procedure not described here.

Sequence of Beta-1 adrenergic receptor (P08588 whole entry): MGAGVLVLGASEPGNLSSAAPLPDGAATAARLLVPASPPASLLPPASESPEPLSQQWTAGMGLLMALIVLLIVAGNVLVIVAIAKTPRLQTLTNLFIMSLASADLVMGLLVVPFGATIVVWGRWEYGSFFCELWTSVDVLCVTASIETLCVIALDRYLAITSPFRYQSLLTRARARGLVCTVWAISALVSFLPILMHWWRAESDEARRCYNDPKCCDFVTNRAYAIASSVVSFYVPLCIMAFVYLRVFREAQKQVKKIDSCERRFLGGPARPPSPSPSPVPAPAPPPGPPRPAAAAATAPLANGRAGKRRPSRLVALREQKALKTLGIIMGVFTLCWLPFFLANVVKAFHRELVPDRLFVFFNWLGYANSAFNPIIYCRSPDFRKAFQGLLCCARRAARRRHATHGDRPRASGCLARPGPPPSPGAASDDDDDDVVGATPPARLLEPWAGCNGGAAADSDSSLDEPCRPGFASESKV
Sequence of D(1A) dopamine receptor (P21728 whole entry): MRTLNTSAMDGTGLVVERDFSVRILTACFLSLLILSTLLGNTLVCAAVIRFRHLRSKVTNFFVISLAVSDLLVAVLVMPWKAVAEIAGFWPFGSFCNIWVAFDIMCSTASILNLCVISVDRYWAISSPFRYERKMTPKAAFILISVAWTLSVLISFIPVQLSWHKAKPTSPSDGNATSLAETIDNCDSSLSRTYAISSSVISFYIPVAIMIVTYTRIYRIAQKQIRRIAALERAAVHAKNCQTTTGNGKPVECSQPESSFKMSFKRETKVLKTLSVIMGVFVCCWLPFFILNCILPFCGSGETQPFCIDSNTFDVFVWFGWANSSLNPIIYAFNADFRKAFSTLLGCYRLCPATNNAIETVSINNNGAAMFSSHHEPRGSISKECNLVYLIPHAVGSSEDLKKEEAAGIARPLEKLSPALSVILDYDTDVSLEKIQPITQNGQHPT

| SMILES | AC50 [1] [µM] | AC50 (D(1A) dopamine receptor) [µM] | AC50 [2] [µM] | AC50 [3] [µM] | AC50 [4] [µM] | AC50 (Mu-type opioid receptor) [µM] | AC50 [5] [µM] | AC50 (Estrogen receptor) [µM] | AC50 [6] [µM] | AC50 (Progesterone receptor) [µM] | AC50 [7] [µM] |
| --- | --- | --- | --- | --- | --- | --- | --- | --- | --- | --- | --- |
| CCCCC1C(=O)N(c2ccccc2)N(c2ccccc2)C1=O [PHENYLBUTAZONE] | > 10 | > 10 | > 10 | > 10 | > 10 | > 30 | – | – | – | – | – |
| [H]/N=C(/N)N/C(=N/[H])NCCc1ccccc1 [PHENFORMIN] | > 10 | > 30 | > 10 | > 10 | > 10 | > 30 | 15 | – | – | – | – |
| COC(=O)c1ccc(O)cc1 [METHYLPARABEN] | – | – | – | – | – | – | – | > 30 | > 30 | > 30 | > 30 |
| Cc1c(N(C)CS(=O)(=O)O)c(=O)n(-c2ccccc2)n1C [METAMIZOLE] | – | – | – | – | – | – | – | – | > 30 | > 30 | > 30 |
| Oc1ccc2c(c1)CC[C@H](c1ccccc1)[C@@H]2c1ccc(OCCN2CCCC2)cc1 [LASOFOXIFENE] | 10 | > 30 | > 30 | > 30 | 0.0849 | – | 8.2 | – | – | – | – |
| Cc1cc(C(C)(C)C)cc(C)c1CC1=NCCN1 [XYLOMETAZOLINE] | > 30 | > 30 | > 30 | > 30 | 20 | – | 0.208 | – | – | – | – |
| Cc1ccccc1N1CCN(CCc2nnc3n2CCCC3)CC1 [DAPIPRAZOLE] | – | – | – | – | – | – | – | – | > 30 | > 30 | > 30 |
| CC(N)C(O)c1ccccc1 (stereo unspecified) [PHENYLPROPANOLAMINE] | > 10 | > 10 | > 10 | > 10 | > 10 | > 10 | > 10 | – | – | – | – |
| OC1(c2ccc(Cl)cc2)c2ccccc2C2=NCCN21 (stereo unspecified) [MAZINDOL] | > 30 | > 30 | > 30 | > 30 | > 30 | > 10 | > 30 | – | – | – | – |
| CC(C(=O)O)c1ccc(-c2ccccc2)c(F)c1 (stereo unspecified) [FLURBIPROFEN] | > 10 | > 10 | > 10 | > 10 | > 10 | > 30 | – | > 30 | > 30 | – | > 30 |
| CC(C)(C)NC[C@H](O)COc1cccc2c1CCCC2=O [LEVOBUNOLOL] | – | – | – | – | – | – | – | > 30 | > 30 | > 30 | > 30 |
| O=C(O)c1cn(C2CC2)c2cc(N3CCNCC3)c(F)cc2c1=O [CIPROFLOXACIN] | – | – | – | – | – | – | – | > 30 | – | > 30 | – |
| CC(C)NCC(O)c1ccc(O)c(O)c1 (stereo unspecified) [ISOPROTERENOL] | – | > 30 | > 10 | > 10 | > 10 | > 30 | – | – | – | – | – |
| CC(C(=O)O)c1ccc(CC2CCCC2=O)cc1 (stereo unspecified) [LOXOPROFEN] | > 30 | > 30 | > 30 | > 30 | 0.66 | – | – | – | – | – | – |
| CC(CCc1ccc(O)cc1)NCCc1ccc(O)c(O)c1 (stereo unspecified) [DOBUTAMINE] | 5.58 | 13 | > 30 | > 30 | 6.86 | 1.7 | – | – | – | – | – |
| CC(=O)O[C@]1(C(C)=O)CC[C@H]2[C@@H]3C=C(Cl)C4=CC(=O)CC[C@]4(C)[C@H]3CC[C@@]21C [CHLORMADINONE ACETATE] | – | – | – | – | – | – | – | > 30 | > 30 | 0.003 | > 30 |
| COc1ccc(CN(CCN(C)C)c2ccccn2)cc1 [PYRILAMINE] | – | – | – | – | – | – | – | – | > 30 | > 30 | 2.41 |
| CCCCC(=O)O[C@]1(C(=O)CO)[C@@H](C)C[C@H]2[C@@H]3CCC4=CC(=O)C=C[C@]4(C)[C@@]3(F)[C@@H](O)C[C@@]21C [BETAMETHASONE VALERATE] | > 10 | > 10 | > 10 | > 10 | > 10 | > 30 | > 10 | – | – | – | – |
| CN(C)CCCNc1c2ccccc2nc2cccc([N+](=O)[O-])c12 [NITRACRINE] | > 30 | – | > 30 | 18 | > 30 | – | 22 | – | – | – | – |
| CNC1=Nc2ccc(Cl)cc2C(c2ccccc2)=[N+]([O-])C1 [CHLORDIAZEPOXIDE] | > 10 | > 30 | > 10 | 0.79 | – | > 10 | – | – | – | – | – |
| CCCN[C@H]1CCc2nc(N)sc2C1 [PRAMIPEXOLE] | > 30 | – | > 10 | > 10 | > 10 | > 30 | – | – | – | – | – |
| CN1CCC(=C2c3ccccc3CCc3cccnc32)CC1 [AZATADINE] | > 10 | > 10 | > 10 | > 10 | 9.38 | > 30 | > 10 | – | – | – | – |
| CCOC(=O)C1=C(C)NC(C)=C(C(=O)OC)C1c1cccc([N+](=O)[O-])c1 (stereo unspecified) [NITRENDIPINE] | > 10 | > 30 | > 10 | > 10 | > 10 | > 30 | – | – | – | – | – |
| CC12CC3CC(C)(C1)CC(N)(C3)C2 [MEMANTINE] | > 10 | > 10 | > 10 | > 10 | 15.2 | > 10 | > 10 | – | – | – | – |
| Cc1noc(NS(=O)(=O)c2ccc(N)cc2)c1C [SULFISOXAZOLE] | > 10 | > 10 | > 10 | > 10 | > 10 | > 30 | – | – | – | – | – |
| Cc1cc2cc3c(C)cc(=O)oc3c(C)c2o1 [TRIOXSALEN] | > 10 | > 10 | > 10 | > 10 | > 10 | > 30 | – | – | – | – | – |
| Cc1cnc(C(=O)NCCc2ccc(S(=O)(=O)NC(=O)NC3CCCCC3)cc2)cn1 [GLIPIZIDE] | > 10 | – | – | – | > 10 | – | – | > 30 | – | > 30 | – |
| CCCC(CCC)C(N)=O [VALPROMIDE] | > 10 | > 10 | > 10 | > 10 | > 10 | > 30 | > 10 | – | – | – | – |
| CCC[C@H](NC(=O)[C@@H]1[C@H]2CCC[C@H]2CN1C(=O)[C@@H](NC(=O)[C@@H](NC(=O)c1cnccn1)C1CCCCC1)C(C)(C)C)C(=O)C(=O)NC1CC1 | > 10 | – | > 10 | > 10 | > 10 | > 30 | > 10 | – | – | – | – |
| C=C1CC[C@H](O)C/C1=C/C=C1\CCC[C@]2(C)[C@@H]([C@H](C)/C=C/[C@H](C)C(C)C)CC[C@@H]12 [ERGOCALCIFEROL] | – | – | – | – | – | – | – | – | > 30 | > 30 | > 30 |
